The test system of assay [1] is Trypanosoma cruzi. Put plainly: Antitrypanosomal activity against Trypanosoma cruzi Tulahuen epimastigotes incubated for 24 hrs by cell titer glo luminescent assay. Type of assay: functional, organism-based. A general note: ATP-based viability assays read luminescence as a measure of living cells.
For assay [2], the system named is P338. Put plainly: Cytotoxicity against mouse P388 cells at 100 uM incubated for 84 hrs by MTT assay. The assay is classed as functional, cell-based. (Tetrazolium assays rely on reduction of a dye to a coloured formazan, in cell work by metabolically active cells.)
In assay [3] the test system is Kocuria rhizophila. Put plainly: Antimicrobial activity against Kocuria rhizophila ATCC9341 at 100 ug/ml incubated for 24 hrs by microplate reader assay. Particulars: dose 100.0 µg/ml. Type of assay: functional, organism-based.
Assay [4] concerns Staphylococcus aureus. Briefly: Antimicrobial activity against Staphylococcus aureus FDA209 JC-1 at 100 ug/ml incubated for 24 hrs by microplate reader assay. Type of assay: functional, organism-based. Particulars: dose 100.0 µg/ml.
In assay [5] the test system is Escherichia coli. Briefly: Antimicrobial activity against Escherichia coli NIHJ JC-2 at 100 ug/ml incubated for 24 hrs by microplate reader assay. Type of assay: functional, organism-based. The settings on record: dose 100.0 µg/ml.
Assay [6] deals with Ralstonia solanacearum. Briefly: Antimicrobial activity against Ralstonia solanacearum SUPP1541 at 100 ug/ml incubated for 24 hrs by microplate reader assay. Type of assay: functional, organism-based. Particulars: dose 100.0 µg/ml.
Assay [7] deals with Agrobacterium tumefaciens. Put plainly: Antimicrobial activity against Rhizobium radiobacter NBRC14554 at 100 ug/ml incubated for 24 hrs by microplate reader assay. Type of assay: functional, organism-based. The settings on record: dose 100.0 µg/ml.
Assay [8] relates to Candida albicans. Briefly: Antimicrobial activity against Candida albicans NBRC0197 at 100 ug/ml by microplate reader assay. Particulars: dose 100.0 µg/ml. The assay is classed as functional, organism-based.

Drawing on ChEMBL document CHEMBL5257043, “Bulbiferamide, an Antitrypanosomal Hexapeptide Cyclized via an N-Acylindole Linkage from a Marine Obligate Microbulbifer” (J Nat Prod, 2023), this text covers IC50 and Activity for 2 compounds.

Activity calls are given as the source filed them. No cut-off for these calls is given here. *1 amine or outer side, *2 acyl side, *3 side chain or, on linkers, in order; H or OH if unused. Where a SMILES comes first, the peptide text is derived from it. Bridges are numbered along the chain shown (N, C = ends). CO = O=C([*:1])[*:2]

Usually IC50 stands for the concentration at which inhibition is half-maximal.

`O=C(Cn1ccnc1[N+](=O)[O-])NCc1ccccc1` [BENZNIDAZOLE] returned an IC50 in assay [1] of 20 µM.
For `CC[C@H](C)[C@@H]1NC(=O)[C@@H](NC(=O)[C@H](CC(C)C)NC(=O)N[C@@H](Cc2ccccc2)C(=O)O)Cc2cn(c3ccccc23)C(=O)[C@H](CC(C)C)NC(=O)[C@H](CCCNC(=N)N)NC1=O` ({Phe-CO}-LWIRL; lactam 2-C), the IC50 in assay [1] was determined as 4.1 µM. Besides, the result in assay [2], in assay [3], in assay [4], in assay [5], in assay [6] and in assay [7] was inactive. For the same compound, the result in assay [8] was inactive.
